Source: the supplement of paper PMC7695840
“And” between values parts separate entries of the source, which are not always exact repeats. Identical values can stand only once. Counter-ions that a name gives are not always drawn.

How the values were obtained:
[1] = test system: Staphylococcus aureus MW2 delta-mecA (mecA-); assay: IC50 (growth, competition assay); conditions: cefoxitin: subinhibitory
Method in brief: (§1)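 Two fluorescent S. aureus MW2 strains, one carrying and one lacking the resistance gene, were pre-induced, mixed 1:1 and grown unshaken in LB in 1536-well plates for 20 h at 37 °C and 90% humidity with a subinhibitory drug dose set each day. Compounds were tested on five- or nine-point 2-fold gradients in two dye-swapped replicates. DsRed (540/590) and GFP (485/520) signals were scaled per plate between the medians of single-strain controls, and No Treatment was then set to 0.5. For each strain, IC50 was taken as the dose that halved the No Treatment signal, or else the maximal signal.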

[2] = test system: Staphylococcus aureus MW2 (mecA+); assay: IC50 (growth, competition assay); conditions: cefoxitin: subinhibitory
Method in brief: as §1

SMILES	IC50 ([1]; fluorescent label: DsRed)	IC50 ([1]; fluorescent label: GFP)	IC50 ([2]; fluorescent label: DsRed)	IC50 ([2]; fluorescent label: GFP)
Clc1ccccc1C(c1ccccc1)(c1ccccc1)n1ccnc1 [Clotrimazole]	< 9.85 µM	< 9.85 µM	16.1 µM	15.8 µM
CC[C@H](C)C(=O)O[C@H]1C[C@H](O)C=C2C=C[C@H](C)[C@H](CC[C@@H](O)C[C@@H](O)CC(=O)O)[C@H]21 [Pravastatin sodium]	< 9.85 µM	< 9.85 µM	28.8 µM	27.8 µM
CC(C)(C)CC(C)(C)c1ccc(OCCOCC[N+](C)(C)Cc2ccccc2)cc1 [PHEMERIDE]	< 9.85 µM	< 9.85 µM	< 9.85 µM	< 9.85 µM
Cc1cc(Nc2ncc(Cl)c(Nc3ccccc3S(=O)(=O)C(C)C)n2)c(OC(C)C)cc1C1CCNCC1 [Ceritinib (LDK378)]	< 9.85 µM	< 9.85 µM	29 µM	27.7 µM
COc1c(N2CCNC(C)C2)c(F)cc2c(=O)c(C(=O)O)cn(C3CC3)c12 (configuration not stated) [TEQUIN]	< 9.85 µM	< 9.85 µM	< 9.85 µM	< 9.85 µM
COC(=O)CC[C@@H](C)[C@H]1CC[C@H]2[C@@H]3CC[C@@H]4C[C@H](O)CC[C@]4(C)[C@H]3C[C@H](O)[C@]12C [METHYL DEOXYCHOLATE]	13.9 µM	9.91 µM	15.4 µM	26.9 µM
CC[C@H](c1ccc(O)cc1)[C@@H](CC)c1ccc(O)cc1 [HEXESTROL]	< 9.85 µM	< 9.85 µM	< 9.85 µM	29.7 µM
CC[C@H]1OC(=O)C[C@@H](O)[C@H](C)[C@@H](O[C@@H]2O[C@H](C)[C@@H](O[C@H]3C[C@@](C)(O)[C@@H](O)[C@H](C)O3)[C@H](N(C)C)[C@H]2O)[C@@H](CC=O)C[C@@H](C)C(=O)/C=C/C(C)=C/[C@@H]1CO[C@@H]1O[C@H](C)[C@@H](O)[C@@H](OC)[C@H]1OC [Tylosin tartrate]	< 9.85 µM	< 9.85 µM	< 9.85 µM	< 9.85 µM
O=C(Nc1ccc([N+](=O)[O-])cc1Cl)c1cc(Cl)ccc1O [Niclosamide]	< 9.85 µM	73.8 µM	113 µM	< 9.85 µM
O=C(Nc1cc(C(F)(F)F)cc(C(F)(F)F)c1)c1cc(Cl)ccc1O [IMD0354]	< 9.85 µM	< 9.85 µM	< 9.85 µM	< 9.85 µM
Cc1cnc(-c2ccccc2C(C)C)nc1NCc1ccc(-n2ccnn2)cc1 [ML323]	< 9.85 µM	< 9.85 µM	35.3 µM	49.6 µM
CC1=CC(=O)c2c(O)cccc2C1=O [PLUMBAGIN]	< 9.85 µM	< 9.85 µM	18 µM	38.3 µM
CC(C)c1cc2c(c(O)c1O)[C@@]1(C(=O)O)CCCC(C)(C)[C@@H]1CC2 [CARNOSIC ACID]	< 9.85 µM	< 9.85 µM	27.2 µM	38.8 µM
CCN1CCN(c2cc3c(cc2F)c(=O)c(C(=O)O)cn3C2CC2)CC1 [Enrofloxacin]	< 9.85 µM	< 9.85 µM	< 9.85 µM	< 9.85 µM
COc1cc(/C=C/C(=O)CC(=O)/C=C/c2ccc(O)c(OC)c2)ccc1O [CURCUMIN]	< 9.85 µM	< 9.85 µM	26.8 µM	50.1 µM
CCn1cc(C(=O)O)c(=O)c2cc(F)c(N3CCNCC3)nc21 [PENETREX]	< 9.85 µM	< 9.85 µM	< 9.85 µM	< 9.85 µM
O=[N+]([O-])c1ccc(O)c2ncccc12 [ENTEROCOL]	38.4 µM	< 9.85 µM	16.2 µM	54.4 µM
Cc1cc(C(C)(C)CC(C)(C)C)ccc1OCCOCC[N+](C)(C)Cc1ccccc1 [DELAVAN]	< 9.85 µM	< 9.85 µM	< 9.85 µM	< 9.85 µM
N[C@@H]1CONC1=O [SEROMYCIN]	98.8 µM	91.5 µM	> 150 µM	110 µM
CN[C@@H]1[C@@H](O)[C@@H](O[C@@H]2[C@@H](O)[C@H](O[C@H]3O[C@H]([C@@H](C)O)[C@@H](O)[C@H](O)[C@H]3N)[C@@H](N)C[C@H]2N)OC[C@]1(C)O [GENETICIN]	< 9.85 µM	12.4 µM	< 9.85 µM	12.5 µM
O=[N+]([O-])c1ccc2c(c1)S(=O)(=O)C=C2 [Stattic]	25.7 µM and 16.6 µM	13.6 µM and < 9.85 µM	35.8 µM and 35.3 µM	35.4 µM and 56.2 µM
CN[C@H](CC(C)C)C(=O)N[C@H]1C(=O)N[C@@H](CC(N)=O)C(=O)N[C@H]2C(=O)N[C@H]3C(=O)N[C@H](C(=O)N[C@H](C(=O)O)c4cc(O)cc(O)c4-c4cc3ccc4O)[C@H](O)c3ccc(c(Cl)c3)Oc3cc2cc(c3O[C@@H]2O[C@H](CO)[C@@H](O)[C@H](O)[C@H]2O[C@H]2C[C@](C)(N)[C@H](O)[C@H](C)O2)Oc2ccc(cc2Cl)[C@H]1O [VANCOCIN]	< 9.85 µM	< 9.85 µM	< 9.85 µM	< 9.85 µM
CCCCCCNC(=O)n1cc(F)c(=O)[nH]c1=O [Carmofur]	< 9.85 µM	< 9.85 µM	< 9.85 µM	< 9.85 µM
O=C(O)C1=C(CSc2nnnn2CS(=O)(=O)O)CS[C@@H]2[C@H](NC(=O)[C@H](O)c3ccccc3)C(=O)N12 [MONOCID]	< 9.85 µM	< 9.85 µM	98.3 µM	109 µM
COc1cc(NS(C)(=O)=O)ccc1Nc1c2ccccc2nc2ccccc12 [AMSIDYL]	< 9.85 µM	< 9.85 µM	74.3 µM	76.1 µM
CC1(C)S[C@@H]2[C@H](NC(=O)[C@H](N)c3ccc(O)cc3)C(=O)N2[C@H]1C(=O)O [Amoxicillin sodium (Amox)]	< 9.85 µM	< 9.85 µM	< 9.85 µM	15.1 µM
COc1cc([C@@H]2c3cc4c(cc3[C@@H](O[C@@H]3O[C@@H]5CO[C@@H](C)O[C@H]5[C@H](O)[C@H]3O)[C@H]3COC(=O)[C@H]23)OCO4)cc(OC)c1O [Etoposide]	< 9.85 µM	< 9.85 µM	14.9 µM	14.9 µM
NCC(=O)Nc1ccc(-n2nc(C(F)(F)F)cc2-c2ccc3c(ccc4ccccc43)c2)cc1	8.83 µM and 14.5 µM	3.48 µM and 14.7 µM	21.6 µM and 20.8 µM	29.3 µM and 14.7 µM
